Consider one compound from paper PMC8698657, “Absorption and Transport Characteristics and Mechanisms of Carnosic Acid” (Biology, 2021).

“And” between values parts separate entries of the source, which are not always exact repeats. Equal entries are not always repeated.

Data set [1] can be described thus: Tissue distribution of CA in mice by HPLC after oral gavage. The conditions noted are these: 50 mg/kg/daily oral gavage 7 days, 4 h after last gavage. Format: in vivo. The text has this: The animal experiment protocol was approved by the Institutional Animal Care and Use Committee of Guangzhou Medical University (#GY2020-067, 30 July 2020). Male ICR mice aged 5–6 weeks were kept in a specific-pathogen-free environment with 12-h light/dark cycles. […] Both groups were allowed to eat and drink ad libitum. Four hours after the last gavage, the mice were anesthetized, and their eyeballs were removed for blood collection. They were sacrificed and immediately dissected in the supine position. Serum, major organs (heart, liver, lung, stomach, spleen, kidney, small intestine, cecum, and colon), and the contents of the stomach, small intestine, cecum, and colon were collected, weighed, and stored at −80 °C.
Tissue samples and the contents of the digestive tract were homogenized in ultrapure water at 55 Hz for 8 min. Tissue/content homogenate (1 mL) or serum (100 μL) was mixed with 1 mL of 50% methanol, and the mixture was vortexed for 2 min. The mixture was extracted with ethyl acetate three times (6, 3, and 3 mL of ethyl acetate) and vortexed again for 2 min. The sample was centrifuged at 5000 rpm/min at 4 °C for 15 min, and the upper organic phase was dried under vacuum. Then, it was dissolved in 5% phosphoric acid methanol solution and filtered through a 0.22 μm microporous membrane. Concentrations of CA in serum, tissue, and content samples were determined using HPLC. CA standard was added to all samples, and the recovery rate was calculated. The chromatographic conditions for HPLC analysis were as follows: C18 chromatographic column: 5 μm, 150 × 4.6 mm; column temperature: 25 °C; mobile phase: methanol/0.1% phosphoric acid solution at 85%/15%; flow rate: 1.0 mL/min; detection wavelength: 230 nm; injection volume: 10 μL.

The test system of data set [2] is Caco-2 cell monolayer. Briefly: Trans-enterocyte transport of CA in Caco-2 cell monolayer. The conditions noted are these: CA 50–100 μM. Format: in vitro ADME, human. As for the experimental part: Caco-2 were cultured in EMEM complete medium containing 10% FBS, 1% non-essential amino acids, and 1% penicillin-streptomycin double antibody, and the culture conditions were 37 °C, 5% CO2, in a constant temperature incubator [16]. We first established non-toxic dose ranges of CA in Caco-2 cells using MTT assay. Dimethylsulfoxide (DMSO) was used as the vehicle to deliver CA to the cells. The final concentration of DMSO in all experiments was 0.1% (v/v) in cell culture media. Caco-2 cells were seeded in a 96-well plate at a cell density of 5 × 10^4 cells/mL per well, and cultured under 5% CO2 and 37 °C for 24 h. A quantity of 200 μL of medium was added to each well to obtain a series of CA solutions (concentrations of 25, 50, 75, and 100 μmoL). After 48 h of treatment, Caco-2 cells were subjected to the MTT assay as described previously. For the transport study, Caco-2 cells were seeded on the apical compartment (AP) of 12-well Transwell plates at a density of 2 × 10^5 cells/mL. The complete culture medium was added into basolateral (BL) and AP compartments. The basolateral medium was replaced every other day.
CA was dissolved in HBSS solution at 50, 75, and 100 μM. The HBSS solution containing CA combined with 0.5% Tween 80, 5 mmol/L EDTA or 5% PEG 400 was prepared. The cumulative migration (Qr), apparent permeability coefficient (Papp), and the Papp value of bi-direction transport of CA were calculated according to formulas.
The 0.5 mL […] containing different concentrations of CA was added to the AP side of the 12-well Transwell plate, and 1.5 mL HBSS solution was added to the BL side. At 0, 0.5, 1, 1.5, 2, 2.5, and 3 h, 0.2 mL medium was taken from the BL side and stored at −80 °C. The TEER value of each Transwell chamber was measured.
The cryopreserved Transwell samples were transferred to a 15 mL centrifuge tube, and any remaining liquid was fully washed using 1 mL of 50% methanol solution which was also transferred to the 15 mL centrifuge tube. The mixture was vortexed for 1 min, and 6 mL of ethyl acetate solution was added to the tube and vortexed for another 2 min. The mixture was centrifuged at 6000 rpm/min at 4 °C for 10 min. The supernatant was dried under vacuum, dissolved in 5% phosphoric acid methanol solution, and filtered through a 0.22 μm microporous membrane. The concentration of CA was determined by HPLC as described above.

Regarding `CC(C)c1cc2c(c(O)c1O)[C@@]1(C(=O)O)CCCC(C)(C)[C@@H]1CC2` [CA, Carnosic acid], in data set [1], the “Concentration of CA in Cecal content” value was 0.15 nmol/g or mL and 0.15 ± 0.00 nmol/g or mL; the “Concentration of CA in Cecum” value was 2965.1 nmol/g or mL and 2965.10 ± 3.31 nmol/g or mL; the “Concentration of CA in Colon” value was 179.4 nmol/g or mL and 179.43 ± 0.26 nmol/g or mL; the “Concentration of CA in Colonic content” value is 74.54 nmol/g or mL and 74.54 ± 0.21 nmol/g or mL. Further, in data set [1], the “Concentration of CA in Gastric content” value was 1.08 nmol/g or mL and 1.08 ± 0.00 nmol/g or mL; the “Concentration of CA in Heart” value is 0.75 ± 0.00 nmol/g or mL; the “Concentration of CA in Kidney” value is given as 0.66 ± 0.02 nmol/g or mL; the “Concentration of CA in Liver” value was 10.56 ± 0.01 nmol/g or mL. In addition, in data set [1], the “Concentration of CA in Lung” value is listed as 1.68 ± 0.00 nmol/g or mL; the “Concentration of CA in Serum” value is reported as 15.22 ± 0.02 nmol/g or mL; the “Concentration of CA in Small intestine” value is 1.87 nmol/g or mL and 1.87 ± 0.00 nmol/g or mL; the “Concentration of CA in Small intestine content” value was 13.93 nmol/g or mL and 13.93 ± 0.01 nmol/g or mL. For the same compound, in data set [1], the “Concentration of CA in Spleen” value is 13.42 ± 0.01 nmol/g or mL and the “Concentration of CA in Stomach” value is 35.98 ± 0.09 nmol/g or mL. Moreover, the concentration at 4 h in data set [1] (male, ICR, mouse, serum, read-out: CA detected in serum) is 15.2 µM. Also, the permeability classification result in data set [2] is “moderately permeable”.
